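Protocol summary: plate cells (96-well), add compound at 5 concentrations, incubate 48 h, interpolate endpoints linearly. GI50 marks 50% less growth. TGI denotes the concentration required for complete inhibition of growth.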

Some test systems named below: EKVX NSCLC; IGROV1 ovarian; OVCAR-4 ovarian; OVCAR-5 ovarian; OVCAR-8 ovarian; RXF 393 renal; UACC-257 melanoma; UO-31 renal; MDA-MB-231 breast.
What all share (experiment): NCI anticancer screen, dose series, 48 h

With `CN/N=C(/CC(=O)c1sc(-n2nc(-c3ccccc3)cc2-c2ccccc2)nc1C)C(=O)Nc1ccc(Cl)c(Cl)c1`, the TGI is 17.7 µM in the experiment with EKVX NSCLC; over 100 µM in the experiment with IGROV1 ovarian; over 100 µM in the experiment with OVCAR-4 ovarian; 69.6 µM with OVCAR-5 ovarian; over 100 µM in the experiment on OVCAR-8 ovarian; over 100 µM with RXF 393 renal. Moreover, the TGI in the experiment on UACC-257 melanoma and in the experiment on UO-31 renal was over 100 µM each time.
In the case of `COc1ccc(NC(=O)CC(=O)n2nc(-c3ccccc3)c(N=Nc3ccccc3C)c2-c2ccccc2)cc1`, the TGI in the experiment with EKVX NSCLC is 45.2 µM; in the experiment on IGROV1 ovarian it was 46.2 µM; with MDA-MB-231 breast, over 100 µM; in the experiment with OVCAR-4 ovarian it was 59.5 µM; with OVCAR-5 ovarian, over 100 µM; in the experiment with OVCAR-8 ovarian it was 66 µM. For the same molecule, the TGI in the experiment with RXF 393 renal is 33.4 µM; with UACC-257 melanoma, over 100 µM; with UO-31 renal, over 92 µM.
For `CO[C@]12CCC(=O)N1C=Cc1c2[nH]c2ccccc12`, the TGI in the experiment on EKVX NSCLC, with IGROV1 ovarian, with OVCAR-4 ovarian, in the experiment with OVCAR-5 ovarian, in the experiment on OVCAR-8 ovarian and in the experiment with RXF 393 renal was over 100 µM throughout. In addition, the TGI in the experiment with UACC-257 melanoma and with UO-31 renal was over 100 µM in each case.
For `C[CH2][Sn]([Cl])([CH2]C)[CH2]C`, the GI50 in the experiment with EKVX NSCLC was 1.06 µM; in the experiment with IGROV1 ovarian, 0.646 µM; in the experiment on OVCAR-4 ovarian, 1.41 µM; in the experiment on OVCAR-5 ovarian, 3.33 µM; in the experiment with OVCAR-8 ovarian, 1.69 µM; in the experiment with UACC-257 melanoma it was 1 µM. In addition, the GI50 with UO-31 renal is 1.65 µM. The TGI in the experiment on EKVX NSCLC stood at 11.6 µM; with IGROV1 ovarian it was 5.22 µM; in the experiment on OVCAR-4 ovarian, 11 µM; in the experiment with OVCAR-5 ovarian, 8.33 µM; in the experiment on OVCAR-8 ovarian, 4.35 µM; in the experiment on UACC-257 melanoma, 4.43 µM. Besides, in the experiment on UO-31 renal, the TGI was 4.05 µM.
For the molecule `CC1=C2[C@@H](c3ccccc3)C3C=CC2(c2ccccc23)N(C(=O)Nc2cccc3ccccc23)C1=O` (stereo partly specified), the TGI in the experiment on EKVX NSCLC, in the experiment with IGROV1 ovarian, with OVCAR-4 ovarian, in the experiment with OVCAR-5 ovarian, in the experiment with OVCAR-8 ovarian and in the experiment with UACC-257 melanoma was over 100 µM each time. In the experiment with UO-31 renal, the TGI is over 100 µM.
`CC1OC(n2cc(I)c(=O)[nH]c2=O)C=CC1=O` (stereo unspecified): the TGI in the experiment on EKVX NSCLC was found to be 32.3 µM; in the experiment on IGROV1 ovarian it was 39.2 µM; with OVCAR-4 ovarian it was 29.8 µM; in the experiment on OVCAR-5 ovarian, 39.7 µM; in the experiment on OVCAR-8 ovarian, 30.8 µM; in the experiment on UACC-257 melanoma, 27.8 µM. In addition, the TGI in the experiment with UO-31 renal is 30.5 µM.
For the molecule `CCOC(=O)NN(C(=O)OCC)C(C(=O)c1ccc(Cl)cc1)=C1NCCN1`, the TGI in the experiment on EKVX NSCLC, with IGROV1 ovarian, with OVCAR-4 ovarian, in the experiment on OVCAR-5 ovarian, in the experiment with OVCAR-8 ovarian and in the experiment on RXF 393 renal was over 100 µM in each case. Besides, the TGI with UACC-257 melanoma and in the experiment on UO-31 renal was over 100 µM each time.
Turning to `N#CC(C#N)=Cc1ccc(Oc2ccccc2)cc1`, the TGI with EKVX NSCLC was over 100 µM; with IGROV1 ovarian, over 69 µM; in the experiment on OVCAR-5 ovarian, over 100 µM; with OVCAR-8 ovarian, 73.7 µM; with RXF 393 renal, over 100 µM; with UACC-257 melanoma it was over 71.3 µM. This molecule returned a TGI in the experiment with UO-31 renal of over 71.4 µM.
`C[C@]12CC/C(=N\OC(=O)Nc3ccccc3)C=C1CC[C@@H]1C2CC[C@@]2(C)C1CC[C@@H]2OC(=O)Nc1ccccc1` (stereo partly specified): the TGI in the experiment on EKVX NSCLC, with IGROV1 ovarian, in the experiment with OVCAR-4 ovarian, with OVCAR-5 ovarian, in the experiment on OVCAR-8 ovarian and with UO-31 renal was over 100 µM in each case.
As for `O=C(CC(=O)c1cccc([N+](=O)[O-])c1)C(=O)Nc1nc([N+](=O)[O-])cs1`, the TGI with EKVX NSCLC, in the experiment on IGROV1 ovarian, in the experiment on OVCAR-4 ovarian, with OVCAR-5 ovarian, in the experiment on OVCAR-8 ovarian and in the experiment on RXF 393 renal was over 100 µM throughout. Moreover, the TGI in the experiment with UACC-257 melanoma and in the experiment on UO-31 renal was over 100 µM each time.
For `O=c1[nH]c(=O)n(C2OC(CO)C(O)C2O)cc1OCc1ccccc1` (stereo unspecified), the TGI was over 100 µM with EKVX NSCLC; over 100 µM with IGROV1 ovarian; over 100 µM in the experiment with OVCAR-4 ovarian; over 100 µM in the experiment on OVCAR-5 ovarian; over 100 µM in the experiment on OVCAR-8 ovarian; over 83.5 µM with RXF 393 renal. Further, the TGI in the experiment on UACC-257 melanoma and with UO-31 renal was over 100 µM each time.
As for `CC(=O)OCc1c(C)c2ccccc2n1C(C)=O`, the TGI with EKVX NSCLC is over 100 µM; in the experiment on IGROV1 ovarian it was over 100 µM; with OVCAR-4 ovarian, over 100 µM; in the experiment on OVCAR-5 ovarian, over 100 µM; with OVCAR-8 ovarian, over 100 µM; in the experiment with RXF 393 renal, 75.3 µM. The TGI in the experiment on UACC-257 melanoma was 89.8 µM; with UO-31 renal, over 100 µM.
Consider `COc1ccc2c([nH]c3cc(O)c(C)cc32)c1CC=C(C)C`, for which the TGI with IGROV1 ovarian is over 25 µM; with OVCAR-4 ovarian it was over 25 µM; in the experiment on OVCAR-5 ovarian, over 25 µM; with OVCAR-8 ovarian, 10.4 µM; in the experiment on UO-31 renal, over 25 µM. The GI50 in the experiment with UO-31 renal is 14.3 µM.
`CN1CCc2cc(O)c3cc2C1Cc1ccc(cc1)Oc1cc(ccc1O)CC1c2c(cc4c(c2O3)OCO4)CCN1C` (stereo unspecified): the TGI in the experiment with EKVX NSCLC was 70.7 µM; with IGROV1 ovarian it was over 100 µM; in the experiment on OVCAR-4 ovarian it was 88.6 µM; in the experiment on OVCAR-5 ovarian it was 87.7 µM; with OVCAR-8 ovarian, 48.9 µM; in the experiment with RXF 393 renal, 60.2 µM. In the experiment with UO-31 renal, this molecule showed a TGI of 9.46 µM.
Consider `O=[N+]([O-])c1cc([N+](=O)[O-])c(C(Cl)C(Cl)c2ccccc2)cc1C(Cl)C(Cl)c1ccccc1` (stereo unspecified), for which the TGI in the experiment on EKVX NSCLC was found to be 4.28 µM; with IGROV1 ovarian, 7.53 µM; in the experiment on OVCAR-4 ovarian, 7.28 µM; with OVCAR-5 ovarian, 4.43 µM; in the experiment with OVCAR-8 ovarian, 4.62 µM; in the experiment on RXF 393 renal, 2.73 µM. In addition, the TGI in the experiment with UACC-257 melanoma was determined as 4.09 µM; with UO-31 renal, 2.93 µM.
As for `CC(C)N(C(=O)C12C3C4C5C3C1(C#N)C5C42)C(C)C` (stereo unspecified), the TGI with EKVX NSCLC, in the experiment with IGROV1 ovarian, in the experiment with OVCAR-4 ovarian, in the experiment on OVCAR-5 ovarian, with OVCAR-8 ovarian and with UACC-257 melanoma was over 100 µM in each case. The molecule also came in with a TGI in the experiment on UO-31 renal of over 100 µM.

The values are drawn from PubChem BioAssay (NCI).
